Patent US20220047507A1, “MELFLUFEN DOSAGE REGIMENS FOR CANCER” (ONCOPEPTIDES AB, priority 2015, published 2022)
Where two headings read alike, the source gives them in different places.

Experiments:
[1] = test system: patients with relapsed and/or relapsed-refractory multiple myeloma; assay: Safety of various dosages of melflufen, TEAEs (Example 1); assay type: in vivo, human
Description: Example 1: 4 dose levels (15, 25, 40 and 55 mg) of intravenous melflufen hydrochloride (excluding the mass of the salt component) in 290 to 370 ml glucose solution administered over 30 minutes on Day 1 of a 21-day cycle (in combination with dexamethasone treatment on Days 1, 8 and 15), for at least 1 cycle and up to 12 cycles, were evaluated.
Treatment emergent adverse events (TEAEs) of any grade were recorded in 29 patients that took part in Example 1 (4 patients at 15 mg dosage of melflufen over 30 minutes; 7 patients at 25 mg dosage of melflufen over 30 minutes; 12 patients at 40 mg dosage of melflufen over 30 minutes; and 6 patients at 55 mg dosage of melflufen over 30 minutes).

[2] = test system: relapsed-refractory multiple myeloma (RRMM) patients; assay: Safety in patients with RRMM, Example 2a; assay type: in vivo, human; details: 40 mg
Description: Example 2: An open label single arm extension on the dose of 40 mg over 30 minutes of Example 1. Intravenous melflufen was administered over 30 minutes on Day 1 of a 21-day cycle or 28-day cycle (in combination with 40 mg dexamethasone (oral or intravenous) treatment on Days 1, 8 and 15) for at least 2 cycles, and up to the stated number of cycles. The cycle length was extended during the Example 2 Clinical Trial from 21 to 28 days per a protocol amendment to allow for a better recovery of neutrophils and thrombocytes before a new cycle is initiated.
Example 2a results are from a data cut-off of time point (a). Example 2b results are from a data cut-off of time point (bi) for the efficacy data, which was approximately 12 months after time point (a); and from a data cut-off of time point (bii) for the safety data, which was approximately 10 months after time point (a).
As mentioned above, by the data cut-off for Example 2a 38 patients had been dosed with 162 doses of melflufen hydrochloride 40 mg over 30 minutes. Median number of cycles was 3 (1-13) and median duration of treatment was 13 weeks (2-51 weeks). The dose intensity was 96% (77-100).

[3] = human, in vivo, iv
[4] = test system: relapsed-refractory multiple myeloma (RRMM) patients; assay: Efficacy in patients with RRMM, Example 2a; assay type: in vivo, human; details: Evaluable ≥ 1 cycle, n 35
[5] = test system: relapsed-refractory multiple myeloma (RRMM) patients; assay: Safety in patients with RRMM, Example 2b, time point (bii); assay type: in vivo, human; details: of the 57 patients in the ongoing melflufen study
MM cells = details: in vitro; cited from earlier work
[6] = test system: primary MM cells from patients; details: in vitro, incl. patients relapsing after bortezomib, lenalidomide, dexamethasone; cited from earlier work
[7] = 55 mg melflufen hydrochloride, 6 patients
[8] = Example 1, all dose levels, 29 patients

CCOC(=O)[C@H](Cc1ccc(F)cc1)NC(=O)[C@@H](N)Cc1ccc(N(CCCl)CCCl)cc1.Cl [melflufen, L-Melphalanyl-4-fluoro-L-phenylalanine ethyl ester]
Any treatment-related Grade 3 and 4 TEAE, n patients ([1]; 15 mg over 30 min (n = 4)): 2
Any treatment-related Grade 3 and 4 TEAE, total number of events ([1]; 15 mg over 30 min (n = 4)): (4)
Grade 3 and 4 febrile neutropenia, n patients ([1]; 15 mg over 30 min (n = 4)): 1
Grade 3 and 4 febrile neutropenia, total number of events ([1]; 15 mg over 30 min (n = 4)): (1)
Grade 3 and 4 neutropenia, n patients ([1]; 15 mg over 30 min (n = 4)): 0
Grade 3 and 4 neutropenia, total number of events ([1]; 15 mg over 30 min (n = 4)): (0)
Grade 3 and 4 thrombocytopenia, n patients ([1]; 15 mg over 30 min (n = 4)): 1
Grade 3 and 4 thrombocytopenia, total number of events ([1]; 15 mg over 30 min (n = 4)): (1)
Any treatment-related Grade 3 and 4 TEAE, n patients ([1]; 25 mg over 30 min (n = 7)): 5
Any treatment-related Grade 3 and 4 TEAE, total number of events ([1]; 25 mg over 30 min (n = 7)): (13)
Grade 3 and 4 febrile neutropenia, n patients ([1]; 25 mg over 30 min (n = 7)): 0
Grade 3 and 4 febrile neutropenia, total number of events ([1]; 25 mg over 30 min (n = 7)): (0)
Grade 3 and 4 neutropenia, n patients ([1]; 25 mg over 30 min (n = 7)): 2
Grade 3 and 4 neutropenia, total number of events ([1]; 25 mg over 30 min (n = 7)): (6)
Grade 3 and 4 thrombocytopenia, n patients ([1]; 25 mg over 30 min (n = 7)): 2
Grade 3 and 4 thrombocytopenia, total number of events ([1]; 25 mg over 30 min (n = 7)): (3)
Any treatment-related Grade 3 and 4 TEAE, n patients ([1]; 40 mg over 30 min (n = 12)): 7
Any treatment-related Grade 3 and 4 TEAE, total number of events ([1]; 40 mg over 30 min (n = 12)): (23)
Grade 3 and 4 febrile neutropenia, n patients ([1]; 40 mg over 30 min (n = 12)): 1
Grade 3 and 4 febrile neutropenia, total number of events ([1]; 40 mg over 30 min (n = 12)): (2)
Grade 3 and 4 neutropenia, n patients ([1]; 40 mg over 30 min (n = 12)): 4
Grade 3 and 4 neutropenia, total number of events ([1]; 40 mg over 30 min (n = 12)): (8)
Grade 3 and 4 thrombocytopenia, n patients ([1]; 40 mg over 30 min (n = 12)): 4
Grade 3 and 4 thrombocytopenia, total number of events ([1]; 40 mg over 30 min (n = 12)): (9)
Anemia, treatment related ≥grade 3 [1, 7]: (33) %
Any treatment-related grade 3 and/or grade 4, ≥grade 3 [1, 7]: (100) %
Blood and lymphatic system disorders, treatment related ≥grade 3 [1, 7]: (100) %
Cutaneous rash, treatment related ≥grade 3 [1, 7]: (17) %
Fatigue, treatment related ≥grade 3 [1, 7]: (17) %
General disorders and administration site conditions, treatment related ≥grade 3 [1, 7]: (17) %
Infections and infestations, treatment related ≥grade 3 [1, 7]: (50) %
Neutropenia, treatment related ≥grade 3 [1, 7]: (100) %
Pancytopenia, treatment related ≥grade 3 [1, 7]: (17) %
Pneumonia, treatment related ≥grade 3 [1, 7]: (33) %
Sepsis, treatment related ≥grade 3 [1, 7]: (17) %
Skin and subcutaneous disorders, treatment related ≥grade 3 [1, 7]: (17) %
Thrombocytopenia, treatment related ≥grade 3 [1, 7]: (83) %
Urinary tract infection, treatment related ≥grade 3 [1, 7]: (17) %
Any treatment-related Grade 3 and 4 TEAE, n patients ([1]; 55 mg over 30 min (n = 6)): 6
Any treatment-related Grade 3 and 4 TEAE, total number of events ([1]; 55 mg over 30 min (n = 6)): (58)
Grade 3 and 4 febrile neutropenia, n patients ([1]; 55 mg over 30 min (n = 6)): 1
Grade 3 and 4 febrile neutropenia, total number of events ([1]; 55 mg over 30 min (n = 6)): (1)
Grade 3 and 4 neutropenia, n patients ([1]; 55 mg over 30 min (n = 6)): 5
Grade 3 and 4 neutropenia, total number of events ([1]; 55 mg over 30 min (n = 6)): (17)
Grade 3 and 4 thrombocytopenia, n patients ([1]; 55 mg over 30 min (n = 6)): 5
Grade 3 and 4 thrombocytopenia, total number of events ([1]; 55 mg over 30 min (n = 6)): (28)
related Grade 3 or 4 neutropenia at least once, patients ([1]; Example 1, all dose levels): 38%
related Grade 3 or 4 thrombocytopenia at least once, patients ([1]; Example 1, all dose levels): 41%
total number of TEAEs reported ([1]; Example 1, all dose levels 15-55 mg, 29 patients): 157
Grade 3 or 4 TEAEs, regardless of relationship, patients [1, 8]: 76%
anemia, all grades, regardless of relationship [1, 8]: 59%
anemia, all grades, regardless of relationship, n patients [1, 8]: 17
nausea, all grades, regardless of relationship [1, 8]: 38%
nausea, all grades, regardless of relationship, n patients [1, 8]: 11
neutropenia, all grades, regardless of relationship [1, 8]: 41%
neutropenia, all grades, regardless of relationship, n patients [1, 8]: 12
thrombocytopenia, all grades, regardless of relationship [1, 8]: 69%
thrombocytopenia, all grades, regardless of relationship, n patients [1, 8]: 20
Grade 3 or 4 TEAEs, regardless of relationship, n patients ([1]; Example 1, all dose levels, of 29 patients): 22
Serious TEAE related to melflufen: Diarrhoea ([2]; Example 2a): (3) %
Serious TEAE related to melflufen: Diarrhoea, number of patients ([2]; Example 2a): 1
Serious TEAE related to melflufen: Escherichia coli sepsis ([2]; Example 2a): (3) %
Serious TEAE related to melflufen: Escherichia coli sepsis, number of patients ([2]; Example 2a): 1
Serious TEAE related to melflufen: Febrile Neutropenia ([2]; Example 2a): (5) %
Serious TEAE related to melflufen: Febrile Neutropenia, number of patients ([2]; Example 2a): 2
Serious TEAE related to melflufen: Neutropenia ([2]; Example 2a): (3) %
Serious TEAE related to melflufen: Neutropenia, number of patients ([2]; Example 2a): 1
Serious TEAE related to melflufen: Pneumonia ([2]; Example 2a): (8) %
Serious TEAE related to melflufen: Pneumonia, number of patients ([2]; Example 2a): 3
Serious TEAE related to melflufen: Pyrexia ([2]; Example 2a): (5) %
Serious TEAE related to melflufen: Pyrexia, number of patients ([2]; Example 2a): 2
Anemia, treatment related ≥grade 3 ([2]; Example 2a N = 38): (40) %
Any treatment-related grade 3 and/or grade 4, grade 4 ([2]; Example 2a N = 38): (50) %
Any treatment-related grade 3 and/or grade 4, ≥grade 3 ([2]; Example 2a N = 38): 87%
Asthenia, treatment related ≥grade 3 ([2]; Example 2a N = 38): (5) %
Blood and lymphatic system disorders, treatment related grade 4 ([2]; Example 2a N = 38): (47) %
Blood and lymphatic system disorders, treatment related ≥grade 3 ([2]; Example 2a N = 38): (76) %
Fatigue, treatment related ≥grade 3 ([2]; Example 2a N = 38): (5) %
Febrile neutropenia, treatment related ≥grade 3 ([2]; Example 2a N = 38): (5) %
General disorders and administration site conditions, treatment related ≥grade 3 ([2]; Example 2a N = 38): (18) %
Hyperglycemia, treatment related grade 4 ([2]; Example 2a N = 38): (3) %
Hyperglycemia, treatment related ≥grade 3 ([2]; Example 2a N = 38): (8) %
Infections and infestations, treatment related ≥grade 3 ([2]; Example 2a N = 38): (8) %
Investigations, treatment related ≥grade 3 ([2]; Example 2a N = 38): (10) %
Leukopenia, treatment related grade 4 ([2]; Example 2a N = 38): (13) %
Leukopenia, treatment related ≥grade 3 ([2]; Example 2a N = 38): (34) %
Metabolism and nutrition disorders, treatment related grade 4 ([2]; Example 2a N = 38): (3) %
Metabolism and nutrition disorders, treatment related ≥grade 3 ([2]; Example 2a N = 38): (8) %
Neutropenia, treatment related grade 4 ([2]; Example 2a N = 38): (26) %
Neutropenia, treatment related ≥grade 3 ([2]; Example 2a N = 38): (53) %
Neutrophil count decreased, treatment related ≥grade 3 ([2]; Example 2a N = 38): (10) %
Pneumonia, treatment related ≥grade 3 ([2]; Example 2a N = 38): (8) %
Pyrexia, treatment related ≥grade 3 ([2]; Example 2a N = 38): (5) %
Thrombocytopenia, treatment related grade 4 ([2]; Example 2a N = 38): (34) %
Thrombocytopenia, treatment related ≥grade 3 ([2]; Example 2a N = 38): (68) %
Any treatment-related grade 3 and/or grade 4, ≥grade 3 ([2]; Example 2a N = 38, listed as melflufen hydrochloride): (87) %
patients with Serious TEAEs ([2]; Example 2a, 38 patients): 34%
patients with TEAEs leading to death ([2]; Example 2a, 38 patients): 8%
patients with TEAEs leading to dose reduction of melflufen ([2]; Example 2a, 38 patients): 18%
patients with grade 3 or 4 TEAEs ([2]; Example 2a, 38 patients): 90%
patients with treatment-related Serious TEAEs ([2]; Example 2a, 38 patients): 21%
time after end of infusion within which melflufen is no longer measurable [3]: ≤ 15 min
tmax ([3]; 25 mg): 15 min
tmax ([3]; 40 mg): 25 min
Positive Response (PR), patients [4]: 9
Progressive Disease (PD), patients [4]: 8
fatal events while on treatment or within 30 days of last dose [5]: 11%
intracellular exposure (as AUC) of alkylating agents compared to an equimolar dosage of melphalan (MM cells): ≥ 20 fold
cytotoxic activity in primary MM cells [6]: Potent cytotoxic activity
